Source: patent US12662469B2 (SIRONAX LTD, priority 2018, dated 2026)

Test system: Cell Necrosis
Test: Cell necrosis assay / cell viability assay (necrosis inhibitor activity)
Type: cell-based
Conditions: not given

SMILES | activity based on the cell activity assay
O=C1COc2cc(F)c(OC3CN(C(=O)N4N=CC[C@@H]4c4ccccc4)C3)cc2N1 [(R)-7-fluoro-6-((1-(5-phenyl-4,5-dihydro-1H-pyrazole-1-carbonyl)azetidin-3-yl)oxy)-2H-benzo[b][1,4]oxazin-3(4H)-one] | weak activity

Same assay, conditions: necrosis inhibitor activity; EC data for 14-191 extrapolated; read-out: EC50

SMILES | EC50 [µM]
C[C@H]1CN(c2ncccn2)CCN1C(=O)N1N=CCC1c1ccccc1 (stereo in doubt) [Compound 112A, (S)-(2-methyl-4-(pyrimidin-2-yl)piperazin-1-yl)(5-phenyl-4,5-dihydro-1H-pyrazol-1-yl)methanone] | 0.001 to 1
O=C(N1CC(Nc2ccccc2)C1)N1N=CCC1c1ccccc1 (centres unmarked) [Compound 19, (5-phenyl-4,5-dihydro-1H-pyrazol-1-yl)(3-(phenylamino)azetidin-1-yl)methanone] | 1 to 10
O=C(N1CC(Oc2ccc(F)nc2F)C1)N1N=CC[C@H]1c1cc(F)cc(F)c1 [Compound 145] | 0.001 to 1
O=C(N1CC(Oc2ccccc2)C1)N1N=CCC1c1ccccc1 (centres unmarked) [Compound 59] | 0.001 to 1
O=C(N1CCN(c2ncc(F)cn2)CC1)N1N=CCC1c1cc(F)cc(F)c1 (centres unmarked) [Compound 101, (5-(3,5-difluorophenyl)-4,5-dihydro-1H-pyrazol-1-yl)(4-(5-fluoropyrimidin-2-yl)piperazin-1-yl)methanone] | 0.001 to 1
O=C(N1CC(Cc2ccc(F)cc2F)C1)N1N=CCC1c1ccccc1 (centres unmarked) [Compound 50, (3-(2,4-difluorobenzyl)azetidin-1-yl)(5-phenyl-4,5-dihydro-1H-pyrazol-1-yl)methanone] | 0.001 to 1
O=C(N1CCN(c2ccc(F)cn2)CC1)N1N=CCC1c1ccccc1 (centres unmarked) [Compound 85, (4-(5-fluoropyridin-2-yl)piperazin-1-yl)(5-phenyl-4,5-dihydro-1H-pyrazol-1-yl)methanone] | 0.001 to 1
O=C(N1CC(=Cc2ccc3ccc(=O)[nH]c3c2)C1)N1N=CCC1c1cc(F)cc(F)c1 (centres unmarked) [Compound 190] | 0.001 to 1
O=C(N1CC(Oc2nc3[nH]c(=O)ccc3s2)C1)N1N=CCC1c1cc(F)cc(F)c1 (centres unmarked) [Compound 179] | 0.001 to 1
O=C(N1CC(=Cc2ccccc2)C1)N1N=CCC1c1ccccc1 (centres unmarked) [Compound 36, (3-benzylideneazetidin-1-yl)(5-phenyl-4,5-dihydro-1H-pyrazol-1-yl)methanone] | 0.001 to 1
C[C@@H]1CN(c2ncc(F)cn2)C[C@H](C)N1C(=O)N1N=CCC1c1ccccc1 (stereo partly drawn) [Compound 28, ((2R,6S)-4-(5-fluoropyrimidin-2-yl)-2,6-dimethylpiperazin-1-yl)(5-phenyl-4,5-dihydro-1H-pyrazol-1-yl)methanone] | 0.001 to 1
O=C(N1CC[C@@H](Oc2cccc(F)c2)C1)N1N=CCC1c1ccccc1 (stereo partly drawn) [Compound 32, ((R)-3-(3-fluorophenoxy)pyrrolidin-1-yl)(5-phenyl-4,5-dihydro-1H-pyrazol-1-yl)methanone] | 0.001 to 1
O=C(N1CC(Oc2ccccc2F)C1)N1N=CC[C@H]1c1cc(F)cc(F)c1 [Compound 144] | 0.001 to 1
NC(=O)c1c(F)cc(OC2CN(C(=O)N3N=CCC3c3cc(F)cc(F)c3)C2)cc1Cl (centres unmarked) [Compound 157] | 0.001 to 1
O=C(N1CC(Oc2ccc(F)cc2F)C1)N1N=CCC1c1cccc(F)c1 (centres unmarked) [Compound 75, (3-(2,4-difluorophenoxy)azetidin-1-yl)(5-(3-fluorophenyl)-4,5-dihydro-1H-pyrazol-1-yl)methanone] | 0.001 to 1
O=C(N1CC(Cc2ccc(Cl)cc2F)C1)N1N=CCC1c1ccccc1 (centres unmarked) [Compound 51, (3-(4-chlor-2-fluorobenzyl)azetidin-1-yl)(5-phenyl-4,5-dihydro-1H-pyrazol-1-yl)methanone] | 0.001 to 1
CC(=C1CN(C(=O)N2N=CCC2c2ccccc2)C1)c1ccccc1 (centres unmarked) [Compound 123, (5-phenyl-4,5-dihydro-1H-pyrazol-1-yl)(3-(1-phenylethylidene)azetidin-1-yl)methanone] | 0.001 to 1
CNC(=O)c1nc(OC2CN(C(=O)N3N=CCC3c3cc(F)cc(F)c3)C2)oc1F (centres unmarked) [Compound 172] | 0.001 to 1
O=C(N1CC(=Cc2ccc(F)c(F)c2)C1)N1N=CCC1c1cc(F)cc(F)c1 (centres unmarked) [Compound 140, (3-(3,4-difluorobenzylidene)azetidin-1-yl)(5-(3,5-difluorophenyl)-4,5-dihydro-1H-pyrazol-1-yl)methanone] | 0.001 to 1
O=C(N1CC[C@@H](Oc2ccc(F)cc2)C1)N1N=CCC1c1ccccc1 (stereo partly drawn) [Compound 33, ((R)-3-(4-fluorophenoxy)pyrrolidin-1-yl)(5-phenyl-4,5-dihydro-1H-pyrazol-1-yl)methanone] | 0.001 to 1

Same assay, conditions: necrosis inhibitor activity; compounds outside 14-191; read-out: EC50

SMILES | EC50 [µM]
O=C(N1CC(Oc2ccc(Cl)nc2F)C1)N1N=CC[C@H]1c1cc(F)cc(F)c1 [Compound 338, (S)-(3-((6-chloro-2-fluoropyridin-3-yl)oxy)azetidin-1-yl)(5-(3,5-difluorophenyl)-4,5-dihydro-1H-pyrazol-1-yl)methanone] | 0.001 to 1
O=C1CCc2ccc(OC3CN(C(=O)N4N=CC[C@H]4c4cc(F)cc(F)c4)C3)cc2N1 [Compound 206, (S)-7-((1-(5-(3,5-difluorophenyl)-4,5-dihydro-1H-pyrazole-1-carbonyl)azetidin-3-yl)oxy)-3,4-dihydroquinolin-2(1H)-one] | 0.001 to 1
N#Cc1ccc(C=C2CN(C(=O)N3N=CC[C@H]3c3cc(F)cc(F)c3)C2)c(F)n1 [Compound 323, (S)-5-((1-(5-(3,5-difluorophenyl)-4,5-dihydro-1H-pyrazole-1-carbonyl)azetidin-3-ylidene)methyl)-6-fluoropicolinonitrile] | 0.001 to 1
NC(=O)c1ccc(OC2CN(C(=O)N3N=CCC3c3cc(F)cc(F)c3)C2)cc1Cl (centres unmarked) [Compound 227, 2-chloro-4-((1-(5-(3,5-difluorophenyl)-4,5-dihydro-1H-pyrazole-1-carbonyl)azetidin-3-yl)oxy)benzamide] | 0.001 to 1
O=C(N1CC(Oc2ccc3cn[nH]c3c2)C1)N1N=CC[C@H]1c1cc(F)cc(F)c1 [Compound 234, (S)(3-((1H-indazol-6-yl)oxy)azetidin-1-yl)(5-(3,5-difluorophenyl)-4,5-dihydro-1H-pyrazol-1-yl)methanone] | 0.001 to 1
CN(C(=O)N1N=CCC1c1ccccc1)C1CCCCC1 (centres unmarked) [Compound 12, N-cyclohexyl-N-methyl-5-phenyl-4,5-dihydro-1H-pyrazole-1-carboxamide] | 1 to 10
O=C(N1CCN(c2ncc3cn[nH]c3n2)CC1)N1N=CC[C@H]1c1cc(F)cc(F)c1 [Compound 260, (S)-(4-(1H-pyrazolo[3,4-d]pyrimidin-6-yl)piperazin-1-yl)(5-(3,5-difluorophenyl)-4,5-dihydro-1H-pyrazol-1-yl)methanone] | 0.001 to 1
CC(=O)Nc1nccc(O[C@@H]2CCN(C(=O)N3N=CC[C@H]3c3cc(F)cc(F)c3)C2)n1 [Compound 368, N-(4-(((R)-1-((S)-5-(3,5-difluorophenyl)-4,5-dihydro-H-pyrazole-1-carbonyl)pyrrolidin-3-yl)oxy)pyrimidin-2-yl)acetamide] | 0.001 to 1
CC1CN(C(=O)N2N=CCC2c2ccccc2)C1 (centres unmarked) [Compound 4, (3-methylazetidin-1-yl)(5-phenyl-4,5-dihydro-1H-pyrazol-1-yl)methanone] | 0.001 to 1
O=C(Nc1nccc(O[C@@H]2CCN(C(=O)N3N=CC[C@H]3c3cc(F)cc(F)c3)C2)n1)C1CC1 [Compound 369, N-(4-(((R)-1-((S)-5-(3,5-difluorophenyl)-4,5-dihydro-1H-pyrazole-1-carbonyl)pyrrolidin-3-yl)oxy)pyrimidin-2-yl)cyclopropanecarboxamide] | 0.001 to 1
CC(=O)Nc1ccnc(N2CCN(C(=O)N3N=CC[C@H]3c3cc(F)cc(F)c3)CC2)n1 [Compound 225] | 0.001 to 1
N#Cc1cc(F)ccc1C=C1CN(C(=O)N2N=CC[C@H]2c2cc(F)cc(F)c2)C1 [Compound 321, (S)-2-((1-(5-(3,5-difluorophenyl)-4,5-dihydro-1H-pyrazole-1-carbonyl)azetidin-3-ylidene)methyl)-5-fluorobenzonitrile] | 0.001 to 1
O=C(NC1CCCCC1)N1N=CCC1c1ccccc1 (centres unmarked) [Compound 10, N-cyclohexyl-5-phenyl-4,5-dihydro-1H-pyrazole-1-carboxamide] | 1 to 10
N#Cc1cncc([C@@H]2CC=NN2C(=O)N2CC(Oc3cc4c(cc3F)OCC(=O)N4)C2)c1 [Compound 197, (S)-5-(1(3-((7-fluoro-3-oxo-3,4-dihydro-2H-benzo[b][1,4]oxazin-6-yl)oxy)azetidine-1-carbonyl)-4,5-dihydro-1H-pyrazol-5-yl)nicotinonitrile] | 0.001 to 1
O=C(N1CC(Oc2ccc3ccc(=O)[nH]c3c2)C1)N1N=CC[C@H]1c1cc(F)cc(F)c1 [Compound 205, (S)-7-((1-(5-(3,5-difluorophenyl)-4,5-dihydro-1H-pyrazole-1-carbonyl)azetidin-3-yl)oxy)quinolin-2(1H)-one] | 0.001 to 1
CC1Oc2cc(F)c(OC3CN(C(=O)N4N=CC[C@H]4c4cc(F)cc(F)c4)C3)cc2NC1=O (stereo partly drawn) [Compound 350, 6-((1-((S)-5-(3,5-difluorophenyl)-4,5-dihydro-1H-pyrazole-1-carbonyl)azetidin-3-yl)oxy)-7-fluoro-2-methyl-2H-benzo[b][1,4]oxazin-3(4H)-one] | 0.001 to 1
NC(=O)c1cc(F)c(OC2CN(C(=O)N3N=CC[C@H]3c3cc(F)cc(F)c3)C2)c(F)c1 [Compound 222, (S)-4-((1-(5-(3,5-difluorophenyl)-4,5-dihydro-1H-pyrazole-1-carbonyl)azetidin-3-yl)oxy)-3,5-difluorobenzamide] | 0.001 to 1
O=C(N1CC(=Cc2ccc(F)nc2)C1)N1N=CCC1c1cncc(F)c1 (centres unmarked) [Compound 307, (5(5-fluoropyridin-3-yl)-4,5-dihydro-H-pyrazol-1-yl)(3-((6-fluoropyridin-3-yl)methylene)azetidin-1-yl)methanone] | 0.001 to 1
O=C(N1CC(=Cc2ccc3oc(=O)[nH]c3c2)C1)N1N=CC[C@H]1c1cc(F)cc(F)c1 [Compound 311, (S)-5-((1(5-(3,5-difluorophenyl)-4,5-dihydro-1H-pyrazole-1-carbonyl)azetidin-3-ylidene)methyl)benzo[d]oxazol-2(3H)-one] | 0.001 to 1
N#Cc1nccc(OC2CN(C(=O)N3N=CC[C@H]3c3cc(F)cc(F)c3)C2)n1 [Compound 265, (S)-4-((1-(5-(3,5-difluorophenyl)-4,5-dihydro-1H-pyrazole-1-carbonyl)azetidin-3-yl)oxy)pyrimidine-2-carbonitrile] | 0.001 to 1
